Test results reported in the supplement of paper PMC10307832.

Columns and labels:
Quizartinib + Dasatinib = compound: CC(C)(C)c1cc(NC(=O)Nc2ccc(-c3cn4c(n3)sc3cc(OCCN5CCOCC5)ccc34)cc2)no1 [Quizartinib] + Cc1nc(Nc2ncc(C(=O)Nc3c(C)cccc3Cl)s2)cc(N2CCN(CCO)CC2)n1 [Dasatinib] (partner 0.075 µM); assay: relative viability (nuclei count vs DMSO), 5 days (fraction); higher = more cells survive
How it was run: (§1)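 Lung cancer cell lines in 1536-well plates got either a single drug or a fixed anchor-drug dose together with five library-drug doses (not always all listed) in √10 steps, by pin tool, on the day after seeding. Nuclei were counted after 5 days, and relative viability is the treated-to-vehicle ratio of nuclei counts. Values are medians of duplicate plates.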

Quizartinib + Luminespib = compound: CC(C)(C)c1cc(NC(=O)Nc2ccc(-c3cn4c(n3)sc3cc(OCCN5CCOCC5)ccc34)cc2)no1 [Quizartinib] + CCNC(=O)c1noc(-c2cc(C(C)C)c(O)cc2O)c1-c1ccc(CN2CCOCC2)cc1 [Luminespib] (partner 0.01 µM); assay: as above
How it was run: as §1

Cell Line | relative viability (Quizartinib + Dasatinib; first compound 0.001 µM) | relative viability (Quizartinib + Dasatinib; first compound 0.003162 µM) | relative viability (Quizartinib + Dasatinib; first compound 0.01 µM) | relative viability (Quizartinib + Dasatinib; first compound 0.03162 µM) | relative viability (Quizartinib + Dasatinib; first compound 0.1 µM) | relative viability (Quizartinib + Luminespib; first compound 0.001 µM) | relative viability (Quizartinib + Luminespib; first compound 0.003162 µM) | relative viability (Quizartinib + Luminespib; first compound 0.01 µM) | relative viability (Quizartinib + Luminespib; first compound 0.03162 µM) | relative viability (Quizartinib + Luminespib; first compound 0.1 µM)
NCI-H522 | 0.861 | 0.861 | 1.11 | 0.794 | 0.882 | 1.11 | 1.07 | 0.892 | 1.1 | 1.47
LXF-289 | 0.218 | 0.21 | 0.29 | 0.254 | 0.29 | 0.63 | 0.666 | 0.778 | 0.699 | 0.794
LU99A | 0.419 | 0.592 | 0.523 | 0.467 | 0.135 | 0.268 | 0.216 | 0.234 | 0.257 | 0.237
HOP-62 | 0.564 | 0.589 | 0.638 | 0.652 | 0.662 | 0.914 | 0.843 | 1.04 | 0.933 | 0.9
NCI-H1915 | 0.344 | 0.329 | 0.262 | 0.303 | 0.324 | 0.786 | 0.714 | 0.828 | 0.829 | 0.815
NCI-H1623 | 0.502 | 0.627 | 0.507 | 0.623 | 0.598 | 0.38 | 0.564 | 0.455 | 0.57 | 0.408
NCI-H2342 | 0.31 | 0.314 | 0.308 | 0.285 | 0.316 | 0.807 | 0.752 | 0.696 | 0.759 | 0.762
SW 1573 | 0.417 | 0.481 | 0.561 |  | 0.76 | 0.163 | 0.21 | 0.164 |  | 0.255
HCC-44 |  |  |  |  |  |  | 0.99 | 1.06 | 0.35 | 0.996
HARA |  | 0.231 | 0.252 | 0.215 | 0.268 |  | 0.684 | 0.933 | 0.526 | 0.566
HCC-366 | 0.531 | 0.548 | 0.575 | 0.612 | 0.657 |  |  |  |  | 
SK-MES-1 | 0.337 | 0.354 | 0.404 |  | 0.273 | 0.736 | 0.789 | 0.541 |  | 0.646
ABC-1 | 0.578 | 0.572 | 0.661 |  | 0.502 | 0.67 | 0.445 | 0.504 |  | 0.498
NCI-H358 | 0.136 | 0.188 | 0.164 | 0.167 | 0.144 | 0.224 | 0.359 | 0.309 | 0.475 | 0.228
HCC-15 |  | 0.58 | 0.594 |  | 0.6 |  | 0.281 | 0.197 | 0.346 | 0.33
NCI-H1650 | 0.283 | 0.328 | 0.298 |  | 0.245 | 0.185 | 0.182 | 0.19 |  | 0.172
NCI-H1666 | 0.836 | 0.782 | 0.737 | 0.582 | 0.757 | 0.977 | 1.05 | 1.02 | 0.789 | 1.03
EMC-BAC-2 | 0.296 | 0.299 | 0.294 |  | 0.375 | 1.11 | 1.15 | 1.2 |  | 1.23

Cell Line | relative viability (Quizartinib + Dasatinib; first compound 0.001 µM) | relative viability (Quizartinib + Dasatinib; first compound 0.003162 µM) | relative viability (Quizartinib + Dasatinib; first compound 0.01 µM) | relative viability (Quizartinib + Dasatinib; first compound 0.03162 µM) | relative viability (Quizartinib + Dasatinib; first compound 0.1 µM) | relative viability (Quizartinib + Luminespib; first compound 0.001 µM) | relative viability (Quizartinib + Luminespib; first compound 0.003162 µM) | relative viability (Quizartinib + Luminespib; first compound 0.01 µM) | relative viability (Quizartinib + Luminespib; first compound 0.03162 µM) | relative viability (Quizartinib + Luminespib; first compound 0.1 µM)
NCI-H460 | 0.481 | 0.551 | 0.413 | 0.307 | 0.422 | 0.0338 | 0.0373 | 0.0292 | 0.0246 | 0.0321
NCI-H2405 | 0.266 | 0.198 | 0.216 | 0.202 | 0.244 | 0.641 | 0.747 | 0.562 | 0.75 | 0.724
SK-LU-1 | 0.178 | 0.169 | 0.204 | 0.183 | 0.232 | 0.205 | 0.191 | 0.212 | 0.201 | 0.232
NCI-H1395 | 0.384 | 0.418 | 0.388 | 0.421 | 0.413 | 0.68 | 0.52 | 0.841 | 0.71 | 0.69
NCI-H727 |  | 0.377 | 0.411 | 0.322 | 0.318 |  | 0.443 | 0.41 | 0.665 | 0.309
NCI-H1975 | 0.415 | 0.305 | 0.367 | 0.297 | 0.325 | 0.166 | 0.273 | 0.164 | 0.212 | 0.202
BEN | 0.292 | 0.335 | 0.347 | 0.257 | 0.318 | 0.421 | 0.33 | 0.307 | 0.384 | 0.214
NCI-H2228 | 0.608 | 0.413 | 0.597 | 0.494 | 0.509 | 0.176 | 0.153 | 0.139 | 0.214 | 0.159
NCI-H2023 | 0.428 | 0.507 | 0.634 |  | 0.613 | 0.73 | 0.664 | 0.759 |  | 0.624
NCI-H1793 | 0.357 | 0.381 | 0.356 | 0.392 | 0.327 | 0.161 | 0.171 | 0.467 | 0.174 | 0.159
NCI-H1993 | 0.636 | 0.478 | 0.58 | 0.644 | 0.662 | 0.862 | 1.03 | 0.965 | 0.844 | 0.692
PC-3 [JPC-3] | 0.925 | 0.967 | 1.09 | 1.01 | 1.03 | 0.556 | 0.676 | 0.808 | 0.733 | 0.724
NCI-H650 | 0.484 | 0.524 | 0.391 | 0.415 | 0.506 | 0.7 | 0.762 | 0.91 | 0.68 | 0.718
NCI-H596 | 0.658 | 0.546 | 0.578 | 0.592 | 0.495 | 0.922 | 0.884 | 1.02 | 0.852 | 0.888
NCI-H2170 | 0.721 | 0.422 | 0.591 | 0.625 | 0.497 | 0.65 | 0.741 | 0.838 | 0.769 | 0.737
NCI-H2087 |  | 0.699 | 0.863 | 0.626 | 0.979 |  | 0.206 | 0.174 | 0.177 | 0.156
COR-L 105 | 0.385 | 0.408 | 0.413 | 0.381 | 0.283 | 0.579 | 0.765 | 0.738 | 0.693 | 0.59
NCI-H2126 | 0.454 | 0.603 | 0.655 |  | 0.625 | 0.844 | 0.828 | 0.798 |  | 1.11
